Measurements as given in US20250034216A1, “STEREOSELECTIVE COVALENT LIGANDS FOR ONCOGENIC AND IMMUNOLOGICAL PROTEINS” (The Scripps Research Institute, priority 2021, published 2025).

Tests used:
Assay in all cases: IA-DTB cysteine engagement
Type in all cases: binding
[1] = molecular target: T1, ALB_C269 (Homo sapiens, UniProt P02768); conditions: 22Rv1 cells, 20 μM probe, 1 h, relative to DMSO
T1 construct: endogenous in cells; host or cells: 22Rv1
Method: (§1) Sample preparation: Cells (adherent: 15 cm dishes, suspension: 2 million cells/mL) were treated with electrophilic probes in situ for indicated times and concentrations, washed with ice-cold PBS, and flash frozen in liquid nitrogen. Cell pellets were lysed by sonication (8 pulses, 40% power) in 500 μL ice-cold PBS supplemented with cOmplete protease inhibitors (1 tablet/10 mL of PBS). Whole cell lysates protein content was measured using a standard DC protein assay (Bio-Rad) and 500 μL (2 mg/mL protein content) were treated with 5 μL of 10 mM 1A-DTB (in DMSO) for 1 h at ambient temperature with occasional vortexing. Samples were methanol-chloroform precipitated with the addition of 500 μL ice-cold MeOH and 200 μL CHCl3, vortexed, and centrifuged (10 min, 10,000 g). Without disrupting the protein disk, both top and bottom layers were aspirated and the protein disk was washed with 1 mL ice-cold MeOH and centrifuged (10 min, 10,000 g). The pellets were allowed to air dry, and then re-suspended in 90 μL buffer (9 M urea, 10 mM DTT, 50 mM TEAB pH 8.5). Samples were reduced by heating at 65 C for 20 minutes and water bath sonicated as needed to resuspend the protein pellets, followed by alkylation via addition of 10 μL (500 mM) iodoacetamide and incubated at 37 C for 30 min with shaking. Samples were briefly centrifuged, and probe sonicated once more to ensure complete resuspension, and then diluted with 300 μL buffer (50 mM TEAB pH 8.5) to reach final concentration of 2 M urea. Trypsin (4 μL of 0.25 μg/μL in trypsin resuspension buffer with 25 mM CaCl2)) was added to each sample and digested at 37 C for 2 h to overnight. Digested samples were then diluted with 300 μL wash buffer (50 mM TEAB pH 8.5, 150 mM NaCl, 0.2% NP-40) containing streptavidin-agarose beads (50 μL of 50% slurry in wash buffer) and were rotated at room temperature for 2 hours. Enriched samples were pelleted by centrifugation (2000 g, 2 min) and transferred to BioSpin columns and washed (3×1 mL wash buffer, 3×1 mL PBS, 3×1 mL water). Enriched peptides were eluted by 300 μL 50% acetonitrile with 0.1% formic acid and eluate was evaporated to dryness via speedvac. IA-DTB labeled and enriched peptides were resuspended in 100 μL EPPS buffer (200 mM, pH 8.0) with 30% acetonitrile, vortexed, and water bath sonicated. Samples were TMT labeled with 3 μL of corresponding TMT tag (5 mg tag resuspended in 256 μL acetonitrile), vortexed, and incubated at room temperature for 1 hour. TMT labeling was quenched with the addition of hydroxylamine (5 μL 5% solution in H2O) and incubated for 15 minutes at room temperature. Samples were then acidified with 5 μL formic acid, combined and dried using a SpeedVac. Samples were desalted via Sep-Pak and then high pH fractionated.
(§2) Data processing: Cysteine engagement ratios (probe vs DMSO) were calculated for each peptide-spectra match by dividing each TMT reporter ion intensity by the average intensity for the channels corresponding to DMSO treatment. Peptide-spectra matches were then grouped based on protein ID and residue number (e.g., PSME1 C22), excluding peptides with summed reporter ion intensities for the DMSO channels <10,000, coefficient of variation for DMSO channels >0.5, and non-tryptic peptide sequences. TMT reporter ion intensities were normalized to the median summed signal intensity across channels.
(§3) Filtering of cysteine data: Replicates were combined based on cell line and treatment condition (probe, concentration, duration) by averaging cysteine engagement ratios across all experiments.

[2] = molecular target: T2, CHUK_C406 (Homo sapiens, UniProt O15111); conditions: 22Rv1 cells, 20 μM probe, 1 h, relative to DMSO
T2 construct: endogenous in cells; host or cells: 22Rv1
T2 sequence (O15111 1-745): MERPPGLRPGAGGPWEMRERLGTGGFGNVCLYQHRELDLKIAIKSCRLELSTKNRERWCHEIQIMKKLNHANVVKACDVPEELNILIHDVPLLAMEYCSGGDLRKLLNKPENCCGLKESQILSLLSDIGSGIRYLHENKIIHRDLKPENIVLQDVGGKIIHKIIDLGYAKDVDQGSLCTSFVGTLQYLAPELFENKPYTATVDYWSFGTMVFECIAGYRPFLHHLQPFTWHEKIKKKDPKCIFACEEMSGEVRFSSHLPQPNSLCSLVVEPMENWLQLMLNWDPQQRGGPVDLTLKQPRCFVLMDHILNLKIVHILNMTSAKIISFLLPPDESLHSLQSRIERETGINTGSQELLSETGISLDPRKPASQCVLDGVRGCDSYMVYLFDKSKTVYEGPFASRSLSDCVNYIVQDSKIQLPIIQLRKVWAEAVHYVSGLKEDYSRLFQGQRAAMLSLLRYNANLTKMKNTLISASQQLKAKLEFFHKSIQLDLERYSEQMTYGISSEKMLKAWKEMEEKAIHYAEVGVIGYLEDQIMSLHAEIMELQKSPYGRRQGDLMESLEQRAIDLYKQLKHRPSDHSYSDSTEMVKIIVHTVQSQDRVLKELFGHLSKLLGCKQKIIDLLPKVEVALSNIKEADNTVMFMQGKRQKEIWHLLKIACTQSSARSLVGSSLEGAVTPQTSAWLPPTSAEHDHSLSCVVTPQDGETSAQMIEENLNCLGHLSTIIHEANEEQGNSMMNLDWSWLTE
Method: as §1, §2, §3

[3] = molecular target: T3, LIMK1_C349 (Homo sapiens, UniProt P53667); conditions: 22Rv1 cells, relative to DMSO; for % engagement LIMK1_C349: 20 μM probe, 1 h; for % engagement LIMK1_349: 5 μM probe, 1 h (FIG. 5B)
T3 construct: endogenous in cells; host or cells: 22Rv1
Method: as §1, §2, §3

[4] = molecular target: T4, HNRNPLL_C235 (Homo sapiens, UniProt Q8WVV9); conditions: 22Rv1 cells, 20 μM probe, 1 h, relative to DMSO
T4 construct: endogenous in cells; host or cells: 22Rv1
T4 sequence (Q8WVV9 1-542): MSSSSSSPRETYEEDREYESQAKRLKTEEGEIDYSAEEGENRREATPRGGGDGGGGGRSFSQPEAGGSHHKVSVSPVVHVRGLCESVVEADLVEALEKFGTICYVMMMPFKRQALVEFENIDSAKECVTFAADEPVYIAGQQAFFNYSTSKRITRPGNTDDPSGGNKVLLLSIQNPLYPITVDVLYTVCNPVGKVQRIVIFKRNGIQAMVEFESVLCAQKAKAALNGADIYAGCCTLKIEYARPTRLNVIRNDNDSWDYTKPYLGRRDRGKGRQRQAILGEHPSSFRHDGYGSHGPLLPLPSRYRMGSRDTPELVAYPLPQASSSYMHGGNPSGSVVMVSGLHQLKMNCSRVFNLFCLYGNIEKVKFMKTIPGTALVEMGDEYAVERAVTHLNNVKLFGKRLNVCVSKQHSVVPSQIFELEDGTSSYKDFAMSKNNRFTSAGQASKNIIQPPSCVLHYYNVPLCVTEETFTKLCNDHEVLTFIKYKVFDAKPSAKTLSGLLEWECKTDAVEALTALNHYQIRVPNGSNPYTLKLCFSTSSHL
Method: as §1, §2, §3

T3 sequence (P53667 whole entry): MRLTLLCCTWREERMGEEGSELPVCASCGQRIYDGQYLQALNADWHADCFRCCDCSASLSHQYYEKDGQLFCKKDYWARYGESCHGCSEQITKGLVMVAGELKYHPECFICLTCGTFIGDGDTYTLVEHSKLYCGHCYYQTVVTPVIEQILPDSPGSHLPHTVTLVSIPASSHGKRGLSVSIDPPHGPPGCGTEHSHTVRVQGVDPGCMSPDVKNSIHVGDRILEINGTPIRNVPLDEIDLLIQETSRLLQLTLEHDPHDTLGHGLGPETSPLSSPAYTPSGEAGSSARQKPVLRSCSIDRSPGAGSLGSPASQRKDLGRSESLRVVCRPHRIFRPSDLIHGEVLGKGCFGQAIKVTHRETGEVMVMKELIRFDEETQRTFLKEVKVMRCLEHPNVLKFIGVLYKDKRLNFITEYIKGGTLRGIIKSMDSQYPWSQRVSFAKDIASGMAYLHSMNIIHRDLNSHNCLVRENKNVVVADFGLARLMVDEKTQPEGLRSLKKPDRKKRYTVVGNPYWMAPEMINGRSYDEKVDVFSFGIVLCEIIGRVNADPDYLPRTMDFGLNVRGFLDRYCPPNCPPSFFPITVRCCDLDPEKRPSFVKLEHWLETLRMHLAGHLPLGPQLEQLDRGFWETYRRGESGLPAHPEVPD
T1 sequence (P02768 25-609): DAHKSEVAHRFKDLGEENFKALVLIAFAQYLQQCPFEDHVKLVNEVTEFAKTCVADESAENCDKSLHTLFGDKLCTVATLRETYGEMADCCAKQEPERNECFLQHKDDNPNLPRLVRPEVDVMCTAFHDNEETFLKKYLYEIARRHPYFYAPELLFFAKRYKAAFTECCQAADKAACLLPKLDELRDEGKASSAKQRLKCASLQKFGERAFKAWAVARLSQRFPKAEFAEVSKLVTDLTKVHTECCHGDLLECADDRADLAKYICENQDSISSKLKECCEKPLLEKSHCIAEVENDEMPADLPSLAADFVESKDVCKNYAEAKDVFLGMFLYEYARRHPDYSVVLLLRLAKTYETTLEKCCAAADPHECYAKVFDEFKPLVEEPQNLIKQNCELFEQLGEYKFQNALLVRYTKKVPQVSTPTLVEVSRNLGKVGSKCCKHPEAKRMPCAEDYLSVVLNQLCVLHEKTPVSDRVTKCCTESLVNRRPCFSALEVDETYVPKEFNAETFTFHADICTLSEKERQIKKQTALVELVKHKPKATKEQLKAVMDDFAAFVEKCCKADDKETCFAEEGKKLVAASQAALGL

SMILES	% engagement ALB_C269 [1]	% engagement CHUK_C406 [2]	% engagement LIMK1_C349 [3]	% engagement HNRNPLL_C235 [4]	% engagement LIMK1_349 [3]
C=CC(=O)N1C[C@H](c2ccc(Br)cc2)[C@H]1C(=O)Nc1cccc2cccnc12 [MY-3B, (2S,3S)-1-acryloyl-3-(4-bromophenyl)-N-(quinolin-8-yl)azetidine-2-carboxamide]	79.5%	97%	43.25%	75%	
CC#CC(=O)N1C[C@H](c2ccc(Br)cc2)[C@@H]1C(=O)Nc1cccc2cccnc12 [MY-45B, (2R,3S)-3-(4-bromophenyl)-1-(but-2-ynoyl)-N-(quinolin-8-yl)azetidine-2-carboxamide]					−15.75%

Now from value to compound:

% engagement ALB_C269 [1]	% engagement CHUK_C406 [2]	% engagement LIMK1_C349 [3]	% engagement HNRNPLL_C235 [4]	% engagement LIMK1_349 [3]	SMILES
47.5%	28.5%	93%	34%	90.88%	C=CC(=O)N1C[C@H](c2ccc(Br)cc2)[C@@H]1C(=O)Nc1cccc2cccnc12 [MY-1B, (2R,3S)-1-acryloyl-3-(4-bromophenyl)-N-(quinolin-8-yl)azetidine-2-carboxamide]
86%	0%	21.5%	−7.5%		C=CC(=O)N1C[C@H](c2ccc(Br)cc2)[C@H]1C(=O)Nc1cccc2cccnc12 [MY-3A, (2S,3S)-1-acryloyl-3-(4-bromophenyl)-N-(quinolin-8-yl)azetidine-2-carboxamide]
42.5%	51.5%	45.25%	15%		C=CC(=O)N1C[C@@H](c2ccc(Br)cc2)[C@H]1C(=O)Nc1cccc2cccnc12 [MY-1A, (2S,3R)-1-acryloyl-3-(4-bromophenyl)-N-(quinolin-8-yl)azetidine-2-carboxamide]
